Results published in patent publication US6962930B1, “Compounds, compositions and method suitable for amelioration of withdrawal syndromes and withdrawal-induced brain damage” (Lohocla Research Corporation, priority 1997, dated 2005).

Columns and labels:
[1] = target: T1, NR1a/NR2B recombinant receptors (Homo sapiens, UniProt Q05586); assay: NMDA-induced currents in oocytes expressing NR1a/NR2B; type: cell-based; conditions: 100 μM NMDA, 50 μM DCUKA, increasing glycine
T1 construct: expressed in transfected cells; host or cells: Xenopus laevis oocytes, nuclear cDNA injection
Method: (§1) Oocytes were obtained from Xenopus laevis frogs (Nasco or Xenopus I) kept in aquarium tanks at 19–21° C., on a 12 hr light/dark cycle. Mature females were anesthetized by immersion for approximately 30 min in a 0.12% 3-aminobenzoic acid ethyl ester solution, a small incision was made in the abdominal wall and a piece of ovary was removed and placed in Modified Barth's solution (MBS; in mM) containing 88 NaCl, 1 KCl, 10 HEPES, 0.82 MgSO4, 2.4 NaHCO3, 0.91 CaCl2, 0.33 Ca(NO3)2 (pH 7.5). To facilitate manual dissection of oocytes, a section of ovary was transferred from MBS to a hypertonic buffer containing 108 mM NaCl, 2 mM KCl, 2 mM EDTA, 10 mM HEPES, pH 7.5 and theca and epithelial layers of mature oocytes (stages V and VI) were removed with surgical forceps. The follicular layer was removed by a 10 min immersion in 0.5 mg/ml of collagenase in buffer containing 83 mM NaCl, 2 mM KCl, 1 mM MgCl2 and 5 mM HEPES.
(§2) Human NR1a, NR2A and NR2B cDNAs in pCDNA-1Amp were transformed and amplified in XL-1 Blue cells and purified with the MaxPrep Qiagen kit. Oocytes were injected with cDNA into the nucleus in the following concentrations: NR1a/2A cDNAs 0.75 ng/30 nl 1:1 ratio, NR1a/2B cDNAs 3.0 ng/30 nl: 1:1 ratio. Injections were made with micropipettes (10 μm tip diameter) connected to a Drummond micropipettor attached to a micromanipulator. After injection, oocytes were individually placed in wells of 96-well microtiter plates containing incubation medium (MBS supplemented with 10 mg/l streptomycin, 10,000 U/l penicillin G, 50 mg/l gentamicin, 2 mM sodium pyruvate, 0.5 mM theophylline) that had been sterilized by passage through a […]. Oocytes were incubated at 19° C. for 2 to 4 days after injection.
(§3) Oocytes were placed in a rectangular chamber (approximately […]) and perfused (2 ml/min) with frog Ringer (in mM) containing 115 NaCl, 2.5 KCl, 1.8 CaCl2, 10 HEPES (pH 7.2). […] Control responses were always measured before and after addition of the DCUKA. […] Data are expressed as the % inhibition of the agonist response obtained in the absence of the drug.

[2] = target: T2, NR1a/NR2B recombinant receptors (Homo sapiens, UniProt Q05586+Q13224); assay: as above; type: cell-based; conditions: 100 μM NMDA, 0.3 μM glycine, oocytes; read-out: IC50, inhibition of NMDA-induced currents
T2 construct: expressed in transfected cells; host or cells: Xenopus laevis oocytes, nuclear cDNA injection
Method: as §1, §2, §3

[3] = system: ethanol withdrawal-induced seizures in C57BL/6 mice; assay: Ethanol withdrawal-induced seizures; type: in vivo; conditions: single 100 mg/kg i.p. at 0900 hours
Excerpt: Male C57BL/6 mice were housed individually. One group of mice were each given a measured amount of liquid diet (BioServ) containing 6.7% ethanol (v/v) and a second, control group of mice each received the same diet with maltodextrin substituted isocalorically for ethanol, as their sole nutrient source for 7 days. A description of such a test can be found in Grant, K. A., et al., “ETHANOL WITHDRAWAL SEIZURES AND THE NMDA RECEPTOR COMPLEX,” Eur. J. Pharmacol., 176 289–296, (1990), the relevant disclosures of which are incorporated herein by reference. Pair-fed mice were given a volume of liquid diet equal to the average volume that the ethanol-fed mice consumed on the previous day. This treatment regimen produces mice that are functionally tolerant to and physically dependent on ethanol. Beginning at 0700 hours on the eighth day of the diet, ethanol-containing diet was replaced with control liquid diet (“withdrawal”).
Withdrawal seizure severity was assessed by measuring the incidence of handling-induced and spontaneous seizures, which were rated on a rating scale of 0 to 4, modified from a rating scale described by Grant, K. A., et al. in the above cited article. The rating scale was as follows: 0, little or no reaction; 1, slight jerkiness upon handling; 2, excitability increasing in magnitude to a clonic-tonic seizure; 3, spontaneous or instantaneous clonic-tonic seizure; 4, death while in a seizure. The mice were rated for seizure severity at 2, 4, 6, 7, 8, 9, 10, 11, 12 and 24 hours after ethanol withdrawal. Groups of ethanol-fed mice were injected intraperitoneally at 0700, 1100 and 1400 hours with saline, 3, 10 or 17 mg/kg (±)HA-966 (FIG. 5A) or 10, 17 or 30 mg/kg 7-Cl kynurenic acid (FIG. 5B).
Male C57BL/6 mice were fed ethanol in a liquid diet and the withdrawal seizure severity was assessed as described in EXAMPLE 5. Groups of ethanol-fed mice received a single injection (i.p.) of either vehicle (4% Tween-80, 0.5% carboxymethylcellulose in 0.9% saline) alone or of 100 mg/kg DCUK-OMe suspended in the vehicle administered at 0900 hours. The results are presented in FIG. 6A as the median withdrawal scores of vehicle-injected (N=14) or DCUK-OMe injected (N=6) mice in which * denotes P<0.05, statistically compared to vehicle-injected mice, in the Mann-Whitney U test. FIG. 6B presents the same data as the total withdrawal score, defined as the area enclosed by the curve connecting median withdrawal scores plotted against time as in FIG. 6A. The mean total withdrawal scores±SEM for the vehicle-injected group and DCUK-OMe-injected groups are plotted in which * denotes P<0.05, statistically compared to vehicle-injected mice, by the Student t-test.

reversal by glycine of inhibition of NMDA-induced currents [1]	IC50 [2] [µM]	SMILES	ethanol withdrawal severity [3]
completely reversed at 10 μM glycine	20.7	O=C(O)c1cc(NC(=O)N(c2ccccc2)c2ccccc2)c2c(Cl)cc(Cl)cc2n1 [DCUKA, (N,N-diphenyl)-4-ureido-5,7-dichloro-2-carboxy-quinoline]	
		COC(=O)c1cc(NC(=O)N(c2ccccc2)c2ccccc2)c2c(Cl)cc(Cl)cc2n1 [DCUK-OMe, (N,N-diphenyl)-4-ureido-5,7-dichloro-2-carboxy-quinoline methyl ester]	reduces ethanol withdrawal severity
